Measurements taken from publication PMC13194685 (Cell Death & Disease, 2026).

What was measured:
JNK2 [1] = assay: evONC model: JNK2 expression (immunofluorescence, immunoblot); format: in vivo, C57BL/6J mice; details: evONC T24; 500 μM eye drops (JGRi1 or sJGRi1), one drop daily for 6 days; n = 5
Excerpt: (§1) Animals were then euthanized via beheading.
(§2) Western blots were quantified by densitometry using ImageJ software.
(§3) Fluorescence intensity was quantified by using ImageJ software.

JNK2-STX1A interaction = biological target: T1, JNK2-STX1A interaction (Mus musculus, UniProt Q9WTU6); assay: evONC model: JNK2-STX1A co-localization (Pearson's analysis); format: in vivo, C57BL/6J mice; details: evONC T24; JGRi1 50, 250, 500 μM, sJGRi1 500 μM; one drop daily for 6 days; n = 5
T1 construct: from tissue; host or cells: retinal cryosections of C57BL/6J mice
Protocol: as §1, §3
(§4) Co-localization between fluorescent signals in acquired images was expressed using Pearson’s score, which describes the correlation of the intensity distribution between two distinct fluorescent signals. The analysis was carried out using the “JACOP” plug-in available for the ImageJ software. At least 10 different fields per condition were utilized for the quantification.

[2] = test system: retinal ganglion cells (RGCs); assay: NMDA injection model: RGC viability, apoptosis, cytoarchitecture, CTB-488 transport; format: in vivo, C57BL/6J mice
JNK2 [3] = assay: NMDA injection model: JNK2 immunofluorescence; format: in vivo, C57BL/6J mice; details: intravitreal NMDA; eye drops 250 μM daily; n = 4
Excerpt: as §3

[4] = test system: A2 amacrine cells and rod bipolar cells (PROX1-positive); assay: evONC model: PROX1-positive cells in the INL; format: in vivo, C57BL/6J mice; details: evONC T24; JGRi1 50, 250, 500 μM, sJGRi1 500 μM; one drop daily for 6 days; n = 3
Excerpt: as §1, §3

[5] = test system: retinal ganglion cells (RGCs); assay: Ex vivo optic nerve cut (evONC) model: RGC viability, apoptosis, retinal cytoarchitecture; format: in vivo, C57BL/6J mice; details: evONC T24, JGRi1 50, 250, 500 μM, sJGRi1 500 μM, n = 4
Protocol: as §1, §2
The enucleated eyes were fixed in 4% paraformaldehyde solution overnight at 4 °C. Then, they were incubated in a 30% sucrose-in-PBS solution overnight, and finally, they were embedded in an optimal cutting temperature (OCT, Sigma, St. Louis, MO, USA) compound. Eyes were cut at a thickness of 20 μm. For reliability, the sections containing the optic nerve were utilized, and in each eye, at least five discontinuous sections were analyzed. For histological examination, cryosections were stained in Mayer’s Hematoxylin Solution (Merck, Germany), rinsed in tap water, then counterstained using Eosin Y alcoholic solution (Merck, Germany). Sections were mounted on coverslips with Eukitt (Merck, Germany), and observed under a light-transmission microscope (Nikon) with 40X magnification.
as §3

L-glutamate = assay: NMDA injection model: retinal and synaptic glutamate immunoreactivity; format: in vivo, C57BL/6J mice; details: intravitreal NMDA; eye drops 250 μM daily from one day prior to NMDA through follow-up; n = 3
Protocol: as §3, §4

SNARE complex = assay: evONC model: SNARE complex assay (native PAGE); format: in vivo, C57BL/6J mice; details: evONC T24; JGRi1 50, 250, 500 μM, sJGRi1 500 μM; one drop daily for 6 days; n = 6
Protocol: as §1
The modulation SNARE complex assembly by JGRi1 was evaluated via native PAGE. Briefly, samples were loaded using a non-denaturizing loading buffer (0.5 M Tris-HCl, pH 6.8, 15% v/v glycerol, and 1% v/v bromophenol blue). Samples were then left non-boiled to preserve protein-protein interaction, separated onto polyacrylamide gels, and then blotted onto nitrocellulose membranes. The immunoreactive bands were identified by using an antibody against STX1A, which is a core component of SNARE complexes. Bands starting from approximately 66 kDa were quantified as an indicator of the SNARE complex assembly upon treatment. β-tubulin was used as the loading control for quantification.

STX1A = details: evONC T24; JGRi1 50, 250, 500 μM, sJGRi1 500 μM; one drop daily for 6 days; n = 5
Protocol: Mice were either left untreated or treated for 6 days with a single drop per day of JGRi1 dissolved into a balanced saline solution (BSS) buffer at different concentrations (50 μM, 250 μM, 500 μM). A total volume of 5 μL of JGRi1 solution was applied directly onto the cornea. Treated animals were kept immobilized and under observation for 1 minute to ensure proper peptide penetration within the eye. Animals were then euthanized via beheading. A scrambled version of the peptide (sJGRi1) at a concentration of 500 μM was included as a control. Subsequently, the optic nerve was cut, and the eyes were harvested according to our previously established protocol [25, 26]. The extracted eyes were kept in phosphate-buffered salt (PBS; Capricorn Scientifics, Germany) at 4 °C for 24 hours, then the retinas were dissected and processed accordingly.
Retinal cryosections were permeabilized using 0.5% Tryton-X (Merck, Germany) in PBS (Capricorn Scientifics, Germany) solution for 5 minutes. Then, blocked (0.1 M glycine, 2% w/v bovine serum albumin, 2% v/v fetal calf serum, 0.1% v/v Tryton-X) for 1 hour to avoid non-specific protein interactions. The primary antibody was diluted in the same blocking solution and held overnight at 4 °C. […] Fluorescence intensity was quantified by using ImageJ software.

microglia (IBA1) = assay: NMDA injection model: microglial infiltration (IBA1 immunofluorescence); format: in vivo, C57BL/6J mice; details: intravitreal NMDA; eye drops 250 μM daily; n = 5
Excerpt: as §3

Sequence: RISEQLSNIEEGQE [sJGRi1, control]
- JNK2 immunoreactivity (immunofluorescence) (JNK2 [1]): does not have any effect on JNK2 nor STX1A expression at T24
- JNK2-STX1A co-localization (co-immunofluorescence, Pearson's analysis) (JNK2-STX1A interaction): produced an even more marked co-localization between JNK2 and STX1A
- RBPMS-positive cells (immunofluorescence), RGC viability ([2]; intravitreal NMDA 250 μM, 2 μL, eye drops 250 μM, 4 µL daily, from 24 hours prior to NMDA through the 4-week study period, n = 4): had no effect on either RGC viability or apoptosis
- retinal cytoarchitecture (hematoxylin/Eosin staining) ([2]; intravitreal NMDA, eye drops 250 μM daily from one day prior to NMDA through follow-up, n = 3): failed to do so
- c-CASP3 immunoreactivity / c-CASP3-positive cells, apoptosis ([2]; intravitreal NMDA, eye drops 250 μM daily from one day prior to NMDA through follow-up, n = 4): had no effect on either RGC viability or apoptosis
- uptake and transport of the neural tracer CTB-488 in RGCs (mean fluorescence intensity) ([2]; intravitreal NMDA, eye drops 250 μM daily, CTB-488 1 µL intravitreal before sacrifice, n = 5): diminished CTB uptake and transport in RGCs
- JNK2 immunoreactivity (immunofluorescence) (JNK2 [3]): did not prevent the NMDA-induced increase in JNK2 expression in the inner retina
- number of PROX1-positive cells in the INL [4]: did not produce any protective effect on PROX1-positive cell number
- RBPMS-positive cells in the GCL (immunofluorescence), RGC viability ([5]; one drop daily for 6 days before evONC): failed to rescue RGC viability upon evONC
- RBPMS expression (immunoblot, densitometry vs β-TUB) ([5]; one drop daily for 6 days): did not produce any protective effect on RGC viability in comparison to the active peptide
- L-glutamate immunofluorescence in retinal tissue (L-glutamate): had no effect
- SNARE complex formation (STX1A signal from about 66 kDa, non-boiled samples, vs β-TUB) (SNARE complex): did not produce any effect on SNARE complex formation
- STX1A level (immunofluorescence) (STX1A): does not have any effect on JNK2 nor STX1A expression at T24
- IBA1 immunoreactivity (microglial infiltration) (microglia (IBA1)): no reduction was seen upon treatment with sJGRi1
